Data as given in article PMC12501277, “The deubiquitylase OTUB1 drives gemcitabine resistance in pancreatic cancer by enhancing pyrimidine metabolism through modulating DHODH mRNA stability” (Cell Death & Disease, 2025).

Biological target: T1, OTUB1 (Homo sapiens, UniProt Q96FW1)
T1 construct: Recombinant human OTUB1 protein (Abcam, ab157086)
Assay: SPR (Biacore 8K, OTUB1 immobilized on CM5 chip)
Assay type: binding

T1 sequence (Q96FW1 2-271): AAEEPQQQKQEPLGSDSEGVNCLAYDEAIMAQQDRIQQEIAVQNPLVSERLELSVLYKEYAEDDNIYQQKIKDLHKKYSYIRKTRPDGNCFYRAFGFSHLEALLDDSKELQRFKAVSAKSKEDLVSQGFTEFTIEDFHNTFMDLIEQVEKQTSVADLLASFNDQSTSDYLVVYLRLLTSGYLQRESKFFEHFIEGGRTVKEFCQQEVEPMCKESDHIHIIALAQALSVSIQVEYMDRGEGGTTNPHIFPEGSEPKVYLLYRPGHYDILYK

COc1cc(NC(=O)CCN2CCC(OC(=O)Nc3ccccc3-c3ccccc3)CC2)c(Cl)cc1CNC[C@H](O)c1ccc(O)c2[nH]c(=O)ccc12 [Batefenterol]
Kd: 23.5 µM
